# What was measured:
# [1] = target: Casein kinase II subunit alpha' (Homo sapiens, UniProt P19784); assay: Inhibition of NLuc-fused CSNK2A2 (unknown origin) expressed in HEK293 cells incubated for 2 hrs by NanoBRET assay; format: cell-based
# Murine hepatitis virus = assay: Antiviral activity against Murine hepatitis virus infected in mouse DBT cells preincubated with cells for 1 hrs followed by viral infection and measured after 10 hrs by luminometer; format: functional, organism-based; conditions: Murine coronavirus
# [2] = Kinetic solubility of compound in PBS at pH 7.4 incubated for 24 hrs by HPLC analysis; format: physicochemical; conditions: buffer, pH 7.4, 24 h
# [3] = Cytotoxicity against human A549-ACE2 cells assessed as cell viability at 1 uM incubated for 48 hrs by CellTiter-Glo2 assay relative to control; format: toxicity, cell-based; conditions: a549-ace2, 48 h
# [4] = Cytotoxicity against human A549-ACE2 cells assessed as cell viability at 0.1 uM incubated for 48 hrs by CellTiter-Glo2 assay relative to control; format: toxicity, cell-based; conditions: a549-ace2, 48 h
# Casein kinase II subunit alpha', sequence (P19784 whole entry, the tested form may be a part): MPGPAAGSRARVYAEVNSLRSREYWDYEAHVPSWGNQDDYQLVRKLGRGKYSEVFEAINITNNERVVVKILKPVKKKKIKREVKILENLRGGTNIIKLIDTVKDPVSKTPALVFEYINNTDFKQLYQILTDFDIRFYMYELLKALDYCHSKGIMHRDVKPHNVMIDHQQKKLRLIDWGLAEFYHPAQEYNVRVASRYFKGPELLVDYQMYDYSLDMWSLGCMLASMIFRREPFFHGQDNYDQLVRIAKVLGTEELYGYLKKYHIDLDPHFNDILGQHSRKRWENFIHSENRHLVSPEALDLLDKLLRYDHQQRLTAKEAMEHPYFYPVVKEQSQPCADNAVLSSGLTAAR
SMILES,IC50 [1],IC50 (Murine hepatitis virus),Kinetic_solubility [2],Activity [3],Activity [4]
N#Cc1cnn2c(NC3CC3)cc(Nc3cccc(-n4cnnc4)c3)nc12,3.98 nM,39.8 nM,0.47 µg/mL,85%,100%
N#Cc1cnn2c(NC3CC3)cc(Nc3cc(-n4cnnc4)ccn3)nc12,10 nM,158 nM,1.2 µg/mL,96%,
CS(=O)(=O)Nc1cccc(Nc2cc(NC3CC3)n3ncc(C#N)c3n2)c1,126 nM,794 nM,,,
CN(CCN1CCCC1)c1ccc(Nc2cc(NC3CC3)n3ncc(C#N)c3n2)cc1-n1cnnc1,50.1 nM,10000 nM,,,
Cn1cnc(Nc2cc(Nc3cccc(-n4cnnc4)c3)nc3c(C#N)cnn23)c1,79.4 nM,794 nM,3.1 µg/mL,,
N#Cc1cnn2c(NC3CC3)cc(Nc3cc(-n4cnnc4)c(N4CC[C@H](N)C4)cc3F)nc12,251 nM,2000 nM,37 µg/mL,,
CC(=O)Nc1cccc(Nc2cc(NC3CC3)n3ncc(C#N)c3n2)c1,,158 nM,2.8 µg/mL,,
N#Cc1cnn2c(NC3CC3)cc(Nc3cccc(-n4ncnn4)c3)nc12,200 nM,> 10000 nM,,,
CN1CCN(c2ccc(Nc3cc(NC4CC4)n4ncc(C#N)c4n3)cc2-n2cnnc2)CC1,158 nM,5010 nM,0.2 µg/mL,,
CNCCn1ccc(Nc2cc(Nc3cccc(-n4cnnc4)c3)nc3c(C#N)cnn23)n1,79.4 nM,> 10000 nM,2.1 µg/mL,,
C[C@H](N)CN(C)c1ccc(Nc2cc(NC3CC3)n3ncc(C#N)c3n2)cc1-n1cnnc1,316 nM,200 nM,50 µg/mL,76%,93%
N#Cc1cnn2c(NC3CC3)cc(Nc3cccc(-c4nnco4)c3)nc12,631 nM,10000 nM,,,
N#Cc1cnn2c(NC3CC3)cc(Nc3cccc(-c4ncns4)c3)nc12,50.1 nM,> 10000 nM,,,
CS(=N)(=O)Cc1cccc(Nc2cc(NC3CC3)n3ncc(C#N)c3n2)c1 (stereo not given),,≥ 10000 nM,,,
CN(CCN)c1ccc(Nc2cc(NC3CC3)n3ncc(C#N)c3n2)cc1-n1cnnc1,251 nM,398 nM,45 µg/mL,87%,99%
C[S+]([O-])Cc1cccc(Nc2cc(NC3CC3)n3ncc(C#N)c3n2)c1 (stereo not given),39.8 nM,398 nM,,,
COCCNc1ccc(Nc2cc(NC3CC3)n3ncc(C#N)c3n2)cc1-n1cnnc1,126 nM,316 nM,0.8 µg/mL,99%,99%
CN(CCO)c1cc(F)c(Nc2cc(NC3CC3)n3ncc(C#N)c3n2)cc1-n1cnnc1,63.1 nM,2510 nM,2.6 µg/mL,,
CP(C)(=O)Cc1cccc(Nc2cc(NC3CC3)n3ncc(C#N)c3n2)c1,631 nM,7940 nM,,,
N#Cc1cnn2c(Nc3cn(CCN4CCOCC4)cn3)cc(Nc3cccc(-n4cnnc4)c3)nc12,5010 nM,> 10000 nM,4.2 µg/mL,,
N#Cc1cnn2c(NC3CC3)cc(Nc3cc(-n4cnnc4)ccc3F)nc12,3.16 nM,6.31 nM,1.5 µg/mL,59%,86%
N#Cc1cnn2c(NC3CCC3)cc(Nc3cccc(-n4cnnc4)c3)nc12,7.94 nM,79.4 nM,0.18 µg/mL,93%,

SMILES,IC50 [1],IC50 (Murine hepatitis virus),Kinetic_solubility [2],Activity [3],Activity [4]
Cc1nccn1-c1cccc(Nc2cc(NC3CC3)n3ncc(C#N)c3n2)c1,31.6 nM,> 10000 nM,,,
CC(C)(C#N)c1cccc(Nc2cc(NC3CC3)n3ncc(C#N)c3n2)c1,794 nM,> 10000 nM,,,
CN(CCN1CCOCC1)c1ccc(Nc2cc(NC3CC3)n3ncc(C#N)c3n2)cc1-n1cnnc1,79.4 nM,631 nM,25 µg/mL,,
N#Cc1cnn2c(NC3CC3)cc(Nc3ccc(N4CC[C@H](N)C4)c(-n4cnnc4)c3)nc12,158 nM,398 nM,49 µg/mL,85%,
N#Cc1cnn2c(NC3CC3)cc(Nc3cccc(Cn4cnnc4)c3)nc12,3980 nM,> 10000 nM,,,
CN[C@@H]1CCCN(c2ccc(Nc3cc(NC4CC4)n4ncc(C#N)c4n3)cc2-n2cnnc2)C1,794 nM,3160 nM,63 µg/mL,,
N#Cc1cnn2c(NC3CC3)cc(Nc3ccc(F)c(-n4cnnc4)c3)nc12,5.01 nM,316 nM,0.3 µg/mL,99%,99%
N#Cc1cnn2c(Nc3ccn(CCN4CCCC4)n3)cc(Nc3cccc(-n4cnnc4)c3)nc12,25.1 nM,1580 nM,35 µg/mL,,
N#Cc1cnn2c(NC3CC3)cc(Nc3cccc(-c4cnccn4)c3)nc12,> 10000 nM,> 10000 nM,,,
N#Cc1cnn2c(NC3CC3)cc(Nc3cccc(-n4cc[nH]c4=O)c3)nc12,> 10000 nM,> 10000 nM,,,
N#Cc1cnn2c(NCC3CCOCC3)cc(Nc3cccc(-n4cnnc4)c3)nc12,> 10000 nM,> 10000 nM,,,
CN(C)CCn1ccc(Nc2cc(Nc3cccc(-n4cnnc4)c3)nc3c(C#N)cnn23)n1,31.6 nM,5010 nM,21 µg/mL,,
CN(C)CCn1cnc(Nc2cc(Nc3cccc(-n4cnnc4)c3)nc3c(C#N)cnn23)c1,501 nM,> 10000 nM,30 µg/mL,,
N#Cc1cnn2c(NC3CC3)cc(Nc3cccc(-c4ccccn4)c3)nc12,5010 nM,> 10000 nM,,,
N#Cc1cnn2c(NC3CC3)cc(Nc3cccc(-c4cnn[nH]4)c3)nc12,10 nM,79.4 nM,,85%,100%
N#Cc1cnn2c(NC3CC3)cc(Nc3ccc(N4CCC[C@H](N)C4)c(-n4cnnc4)c3)nc12,126 nM,631 nM,47 µg/mL,,
N#Cc1cnn2c(NC3CC3)cc(Nc3cccc(-n4ccnn4)c3)nc12,501 nM,3160 nM,,,
CNCCn1cnc(Nc2cc(Nc3cccc(-n4cnnc4)c3)nc3c(C#N)cnn23)c1,1580 nM,> 10000 nM,8.4 µg/mL,,
Cn1cnnc1-c1cccc(Nc2cc(NC3CC3)n3ncc(C#N)c3n2)c1,> 10000 nM,> 10000 nM,,,
N#Cc1cnn2c(NCC3CCOC3)cc(Nc3cccc(-n4cnnc4)c3)nc12 (stereo not given),> 10000 nM,5010 nM,,,
N#Cc1cnn2c(NC3CC(F)(F)C3)cc(Nc3cccc(-n4cnnc4)c3)nc12,398 nM,> 10000 nM,,,
N#Cc1cnn2c(NC3CC3)cc(Nc3cccc(-c4nn[nH]n4)c3)nc12,> 10000 nM,2510 nM,,,

SMILES,IC50 [1],IC50 (Murine hepatitis virus),Kinetic_solubility [2],Activity [3],Activity [4]
CC(=O)N1CCC(Nc2cc(Nc3cccc(-n4cnnc4)c3)nc3c(C#N)cnn23)CC1,> 10000 nM,> 10000 nM,,,
CN(CCN)c1cc(F)c(Nc2cc(NC3CC3)n3ncc(C#N)c3n2)cc1-n1cnnc1,1000 nM,2510 nM,41 µg/mL,,
N#Cc1cnn2c(NC3COC3)cc(Nc3cccc(-n4cnnc4)c3)nc12,251 nM,> 10000 nM,,,
N#Cc1cnn2c(NC3CC3)cc(Nc3ccc(N4CC[C@@H](N)C4)c(-n4cnnc4)c3)nc12,251 nM,2510 nM,44 µg/mL,,
CS(=O)(=O)Cc1cccc(Nc2cc(NC3CC3)n3ncc(C#N)c3n2)c1,50.1 nM,158 nM,,,
N#Cc1cnn2c(NC3CC3)cc(Nc3cccc(CCO)c3)nc12,631 nM,7940 nM,,,
CCNCCN(C)c1ccc(Nc2cc(NC3CC3)n3ncc(C#N)c3n2)cc1-n1cnnc1,631 nM,7940 nM,,,
CNCCN(C)c1ccc(Nc2cc(NC3CC3)n3ncc(C#N)c3n2)cc1-n1cnnc1,126 nM,1000 nM,16 µg/mL,,
CCN(CCN)c1cc(F)c(Nc2cc(NC3CC3)n3ncc(C#N)c3n2)cc1-n1cnnc1,501 nM,1580 nM,39 µg/mL,,
Cn1cc(CNc2cc(Nc3cccc(-n4cnnc4)c3)nc3c(C#N)cnn23)cn1,> 10000 nM,> 10000 nM,,,
Cc1nncn1-c1cccc(Nc2cc(NC3CC3)n3ncc(C#N)c3n2)c1,39.8 nM,631 nM,,,
N#Cc1cnn2c(NCCO)cc(Nc3cccc(-n4cnnc4)c3)nc12,> 10000 nM,> 10000 nM,,,
N#Cc1cnn2c(NC3CC3)cc(Nc3cccc(-n4cnnn4)c3)nc12,5.01 nM,> 10000 nM,,,
N#Cc1cnn2c(NC3CC3)cc(Nc3cccc(C(=O)O)c3)nc12,> 10000 nM,> 10000 nM,,,
CC(C)(O)Cc1cccc(Nc2cc(NC3CC3)n3ncc(C#N)c3n2)c1,398 nM,7940 nM,,,
N#Cc1cnn2c(NC3CC3)cc(Nc3cccc(-c4nccs4)c3)nc12,794 nM,2510 nM,,,
CN[C@H]1CCCN(c2ccc(Nc3cc(NC4CC4)n4ncc(C#N)c4n3)cc2-n2cnnc2)C1,126 nM,2000 nM,56 µg/mL,,
N#Cc1cnn2c(Nc3ccn(CCN4CCOCC4)n3)cc(Nc3cccc(-n4cnnc4)c3)nc12,79.4 nM,1000 nM,4 µg/mL,,
N#Cc1cnn2c(Nc3cn(CCN4CCCC4)cn3)cc(Nc3cccc(-n4cnnc4)c3)nc12,200 nM,> 10000 nM,37 µg/mL,,
N#Cc1cnn2c(NC3CC3)cc(Nc3ccc(N4CCOCC4)c(-n4cnnc4)c3)nc12,,126 nM,1.1 µg/mL,,
CN[C@@H]1CCCN(c2cc(F)c(Nc3cc(NC4CC4)n4ncc(C#N)c4n3)cc2-n2cnnc2)C1,158 nM,1580 nM,,,

# — ChEMBL document CHEMBL5500423, “More than an Amide Bioisostere: Discovery of 1,2,4-Triazole-containing Pyrazolo[1,5-a]pyrimidine Host CSNK2 Inhibitors for Combatting β-Coronavirus Replication” (J Med Chem, 2024)
